{"source": "patent US20110033461A1", "about": "“Combination Therapy for the Treatment of Cancer” (priority 2008, published 2011)", "key": {"HCT116 cells [1]": {"system": "HCT116 cells", "test": "viability-based synergy experiment, C1368 and erlotinib, HCT116 cells", "assay_type": "cell-based, human", "conditions": "for fold decrease of IC50 value, combination vs drug alone: C1368:erlotinib 1:25 ratio", "description": "(§1) ED refers to the percentage of cell killed at different drug doses."}, "DLD1 cells": {"system": "DLD1 cells", "test": "viability-based synergy experiment, C1368 and erlotinib, DLD1 cells", "assay_type": "cell-based", "description": "as §1"}, "HCT116 cells [2]": {"system": "HCT116 cells", "test": "viability-based synergy experiment, C1368 and cetuximab, HCT116 cells", "assay_type": "cell-based, human"}, "HCT116 cells [3]": {"system": "HCT116 cells", "test": "cell cycle analysis of erlotinib-treated HCT116 cells", "assay_type": "cell-based, human", "description": "Inhibition of Aurora kinase activity is associated with cell cycle arrest."}}, "note": "Read-outs that look alike come from different tables or passages of the source.", "data": [{"smiles": "O=C(Nc1cccc(Nc2nccc(Nc3cccc(C(F)(F)F)c3)n2)c1)C1CC1", "note": "[C1368]", "values": [{"measurement": "fold decrease of IC50 value, combination vs drug alone", "setting": "HCT116 cells [1]; HCT116 cells", "value": "> 4", "unit": "fold"}, {"measurement": "IC50", "setting": "HCT116 cells [1]; HCT116 cells, combination of C1368 and erlotinib, 1:25 ratio, read-out: IC50 value in combination", "value": 500, "unit": "nM"}, {"measurement": "IC50", "setting": "HCT116 cells [1]; HCT116 cells, treatment with either drug alone, read-out: IC50 value, drug alone", "value": 2300, "unit": "nM"}, {"measurement": "IC50", "setting": "DLD1 cells; DLD1 cells, combination treatment with C1368 and erlotinib, read-out: IC50 in combination", "value": 500, "unit": "nM"}, {"measurement": "IC50", "setting": "DLD1 cells; DLD1 cells, single agent, read-out: IC50, single agent", "value": 2700, "unit": "nM"}, {"measurement": "IC50", "setting": "HCT116 cells [2]; cetuximab with C1368, 1:109 ratio, read-out: IC50 value in combination", "value": 1000, "unit": "nM"}, {"measurement": "IC50", "setting": "HCT116 cells [2]; read-out: IC50 value, drug alone (cetuximab experiment), drug alone", "value": 2100, "unit": "nM"}]}, {"smiles": "C#Cc1cccc(Nc2ncnc3cc(OCCOC)c(OCCOC)cc23)c1", "note": "[erlotinib]", "values": [{"measurement": "fold decrease of IC50 value, combination vs drug alone", "setting": "HCT116 cells [1]; HCT116 cells", "value": "> 3", "unit": "fold"}, {"measurement": "IC50", "setting": "HCT116 cells [1]; Homo sapiens, HCT-116, read-out: IC50 value in combination", "value": 12300, "unit": "nM"}, {"measurement": "IC50", "setting": "HCT116 cells [1]; Homo sapiens, HCT-116, HCT116 cells, treatment with either drug alone, read-out: IC50 value, drug alone", "value": 37300, "unit": "nM"}, {"measurement": "IC50", "setting": "DLD1 cells; Homo sapiens, DLD-1, read-out: IC50 in combination", "value": 13800, "unit": "nM"}, {"measurement": "IC50", "setting": "DLD1 cells; Homo sapiens, DLD-1, DLD1 cells, single agent, read-out: IC50, single agent", "value": 71700, "unit": "nM"}, {"measurement": "concentration at which there was a reduction in cell number suggesting cell death", "setting": "HCT116 cells [3]", "value": "> 50", "unit": "µM"}, {"measurement": "induction of cell cycle arrest", "setting": "HCT116 cells [3]", "value": "did not noticeably induce cell cycle arrest"}]}]}
